This note sets out measurements from paper PMC12948223, “HSP70 Interactome‐Mediated Proteolysis Targeting Chimera (HSP70‐PROTAC) for Ferroptosis‐Driven Cancer Treatment” (Advanced Science, 2025).

The target in assay [1] is T1, GPX4 (Homo sapiens, UniProt P36969).
T1 construct: purchased Cayman 26 906
T1 sequence (P36969 28-197 limits assumed): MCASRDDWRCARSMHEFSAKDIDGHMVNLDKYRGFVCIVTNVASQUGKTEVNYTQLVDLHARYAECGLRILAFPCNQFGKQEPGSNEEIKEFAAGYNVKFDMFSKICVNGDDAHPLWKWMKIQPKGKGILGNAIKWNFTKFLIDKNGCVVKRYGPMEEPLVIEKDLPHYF
In words: SPR binding to GPX4 recombinant protein. The procedure:
The SPR data was generated by our Shared Instrumentation Core Facility at the Hangzhou Institute of Medicine (HIM), Chinese Academy of Sciences. The in vitro binding affinity of compound GDAz‐3 to recombinant proteins (Hsc70, MedChemExpress, #HY‐P73915A; GPX4, Cayman, Item No. 26 906) was evaluated using a Biacore 8K system (Cytiva (GE)) with the method of LMW multi‐cycle kinetics/affinity. Pipelines and chips were flushed with PBS (pH 7.4) running buffer, and then, human Hsc70 was immobilized on a CM5 sensor chip. Analysis was performed at a flow rate of 30 µL min^−1 at 25 °C with the injection of incremental concentrations of compounds dissolved in buffer solution (the final concentration of DMSO was 5%). For ternary‐complex binding measurements, Hsc70 was immobilized on a CM5 sensor chip, and compound GDAz‐3 at a concentration of 1 µM was preincubated with GPX4. The binding and dissociation durations were recorded as response unit values for 120 and 120 s in succession, respectively. Finally, the data were analyzed by Biacore evaluation software with the method of LMW multi‐cycle kinetics/affinity.
(In general: Surface plasmon resonance follows binding to a sensor surface in real time, without labels.)

Assay [2] deals with intracellular LPO. Nature of the assay: Intracellular LPO (C11-BODIPY 581/591, flow cytometry) in HT1080 cells. Type of assay: cell-based, human. Conditions: 12 h. The procedure: The level of LPO was determined by flow cytometry using the C11‐BODIPY^581/591 dye. In short, HT1080 cells were incubated in 6‐well plates at a density of 5 × 10^4 cells per well for 24 h. After that, the culture medium was substituted with a fresh medium containing GDAz‐3, ML162, or a mixture of GDAz‐3 and Fer‐1 at the specified concentrations. Following a 12‐h incubation period, HT1080 cells were stained with C11‐BODIPY^581/591 dye for 10 min. Finally, the cell samples were collected, washed twice with phosphate‐buffered saline (PBS), and then analyzed by flow cytometry.
In general terms: In flow cytometry, cells or beads pass a laser one at a time.

Assay [3] concerns MDA. Nature of the assay: MDA content in HT1080 cells. Format: cell-based, human. Conditions: HT1080 cells, 0.1, 0.5 and 1 µM, 24 h. The protocol:
HT1080 cells were seeded into 10‐cm diameter culture dishes at a density of 2 × 10⁶ cells overnight and then exposed to GDAz‐3 (0.1, 0.5, and 1 µM). The cells were cultured for another 24 h, and the culture medium was discarded, washed with PBS, and lysed using IP lysis buffer (Servicebio, G2038). After lysis, the samples were centrifuged at 12 000 × g for 15 min at 4 °C. The supernatant was collected, and the MDA content was determined according to the instructions of the Lipid Peroxidation MDA Assay Kit (Beyotime Biotechnology, S00131S).

Assay [4] deals with T2, GPX4 (Homo sapiens, UniProt P36969).
T2 sequence (P36969 1-170 isoform P36969-2): T1 sequence (P36969 28-197 limits assumed)
In words: In-cell western (ICW) GPX4 degradation in HT1080 cells. Type of assay: cell-based. Further details: determine the changes in the endogenous levels of GPX4 by western blot assay; endogenous in cells; host or cells: HT1080 fibrosarcoma cells, including siRNA-knockdown derivatives. As to conditions: 24 h. The procedure: To further confirm this degradation efficacy, an in‐cell western (ICW) assay, a quantitative immunofluorescence cell‐based technique, was performed to quantify the relative expression level of GPX4 after treatment with GDAz‐3 for 24 h. […] Given the promising GPX4 degradation activity of GDAz‐3, we extended our evaluation to additional ferroptosis‐sensitive cell lines, including triple‐negative breast cancer cells (MDA‐MB‐231) and melanoma cells (mouse B16‐F10). […] Based on the observation that GDAz‐3 was particularly effective in HT1080 cells, we selected this cell line for further degradation mechanism and ferroptosis pharmacodynamics studies.
HT1080 cells were seeded into 96‐well plates at a density of 1 × 10⁴ cells per well and cultured overnight. After 24‐h treatment with the drugs, the culture medium was removed, and 150 µL of 4% paraformaldehyde was added to each well to fix the cells at 4 °C for 20 min. The paraformaldehyde was removed, and 150 µL of 0.2% Triton X‐100 was added to each well. The cells were permeabilized by shaking at room temperature for 30 min. After removing the Triton X‐100, 50 µL of 1% BSA buffer was added to each well, and shaken at room temperature for 90 min. […] The PBS was discarded, and the plates were read using a Typhoon biomolecular imager (Cytiva, GPX4: wavelength 680 nm; GAPDH: 800 nm).

The term Kd denotes the concentration at which binding is half-saturated. By DC50 is commonly meant the concentration giving 50% degradation. As for `COc1ccc(-c2nc(-c3cc(C(F)(F)F)cc(C(F)(F)F)c3)n(Cc3ccc(C(=O)NCCOCCOCCOCCn4cc(COc5ccc(N(C(=O)CCl)C(C(=O)NCCc6ccccc6)c6cccs6)cc5Cl)nn4)cc3)c2-c2ccc(OC)cc2)cc1` (stereo not shown) [GDAz-3, 4-((2-(3,5-bis(trifluoromethyl)phenyl)-4,5-bis(4-methoxyphenyl)-1H-imidazol-1-yl)methyl)-N-(2-(2-(2-(2-(4-((2-chloro-4-(2-chloro-N-(2-oxo-2-(phenethylamino)-1-(thiophen-2-yl)ethyl)acetamido)phenoxy)methyl)-1H-1,2,3-triazol-1-yl)ethoxy)ethoxy)ethoxy)ethyl)benzamide], the Kd in assay [1] turned out to be 1.17 µM. In assay [2], the “Fluorescence intensity of C11-BODIPY 581/591 (lipid peroxidation)” value was “markedly enhanced”. Also, the “Content of MDA” value in assay [3] is reported as “increased”. The compound further gave a DC50 in assay [4] of 0.25 µM.
